# Where a name gives a salt, the structure may show the parent alone. Read-outs that look alike come from different tables or passages of the source. Peptide text beside a SMILES is read from it.
# What was measured:
# [1] = tested on: AST from Clostridium innocuum strain 554WT; experiment: AST assay, sulfate acceptors (phenolic compounds, tyrosylpeptides) with p-nitrophenylsulfate as sulfate donor; type: biochemical; conditions: for Yield (%) of sulfated tyrosylpeptide: tyrosylpeptides as sulfate acceptors
# [2] = tested on: AST of Clostridium innocuum 554 ATCC 55803 (Strain 554WT); experiment: AST assay, sulfate donor substrate specificity with tyramine as sulfate acceptor; type: biochemical; conditions: for Activity (%) as sulfate donor: relative to p-nitrophenylsulfate designated as 100% activity, tyramine as sulfate acceptor; for specific activity as donor substrate: normalized to p-acetylphenylsulfate as donor baseline at 100% activity
# Description: (§1) At each stage of purification, the AST activity was assayed by incubating the AST with 0.1 M Tris (pH 8.0), 5.0 mM p-nitrophenylsulfate (as aryl sulfate donor) and 2.5 mM tyramine (as sulfate acceptor). The reaction was incubated at 37° C. and terminated by addition of 1 N NaOH. The amount of p-nitrophenol formed during the reaction was determined by an absorbance reading at 405 nm. One unit of enzyme is equal to 1 mmol of p-nitrophenol formed per minute per milligram protein. Other aryl sulfate donors and phenolic acceptors were used at similar concentrations. Peptide acceptors were typically used in the 250-500 mM range. Formation of sulfated phenols and peptides was also quantitated via HPLC, using a 30% acetonitrile/70% water mobile phase. A UV detector was used to monitor peptides at 280 nm. Other wavelengths were used with various sulfated phenolic products and substrates as appropriate.
# The AST assay was performed as described in Example 2 using each of the sulfate donors listed in Table 4, with tyramine as the sulfate acceptor in each case. […] Activity is shown as a percentage relative to the activity obtained with p-nitrophenylsulfate, which is designated as 100% activity.
# Clostridium innocuum AST = experiment: Effectors of arylsulfotransferase activity; type: biochemical; conditions: no effect / inhibitory / stimulatory
# Excerpt: The above-described physical and biochemical properties of a Clostridium innocuum AST of the present invention are summarized in Table 3.
# [3] = tested on: bacterial arylsulfotransferase; conditions: prior bacterial arylsulfotransferase; Kobashi et al., 1987; cited from earlier work
# [4] = tested on: Eubacterium nodatum arylsulfotransferase; experiment: Sulfation of CCK-8 by Eubacterium nodatum enzyme; type: biochemical; conditions: under conditions similar to the prior art
# [5] = tested on: Eubacterium A-44 arylsulfotransferase; conditions: p-acetylphenylsulfate as donor baseline at 100% activity; Kobashi et al., 1987; cited from earlier work
# [6] = tested on: AST of Clostridium innocuum 554 ATCC 55803 (Strain 554WT); experiment: Apparent Km from double reciprocal plots; type: biochemical
# Description: as §1
# In this AST assay, various concentrations of p-nitrophenylsulfate (as a sulfate donor) and of tyramine (as a sulfate acceptor) were plotted against the corresponding enzyme reaction rate in a double reciprocal plots (FIG. 4). AST activity was determined as described previously.
# [7] = p-nitrophenylsulfate as sulfate donor
# [8] = phenolic compounds, p-nitrophenylsulfate as sulfate donor, tyramine 100
molecule,measurement,setting,value
CSCC[C@H](NC(=O)[C@H](Cc1c[nH]c2ccccc12)NC(=O)CNC(=O)[C@@H](NC(=O)[C@H](Cc1ccc(O)cc1)NC(=O)[C@H](CC(=O)O)NC(=O)[C@H](CCC(N)=O)NC(=O)[C@@H]1CCC(=O)N1)[C@@H](C)O)C(=O)N[C@@H](CC(=O)O)C(=O)N[C@@H](Cc1ccccc1)C(N)=O (HELM PEPTIDE1{[Glp].Q.D.Y.T.G.W.M.D.F.[am]}$$$$V2.0),Yield (%) of sulfated tyrosylpeptide,[1]; [7],4.8%
Nc1ncnc2c1ncn2[C@@H]1O[C@H](COP(=O)(O)OS(=O)(=O)O)[C@@H](OP(=O)(O)O)[C@H]1O [3'-phosphoadenosine-5'-phosphosulfate],utilization as a sulfate donor,[2]; in words,does not utilize
same,Activity (%) as sulfate donor,[2],0%
Cc1cc(=O)oc2cc(O)ccc12 [4-methylumbelliferone],Activity (%) as sulfate acceptor,[1]; [8],86%
Cc1cc(=O)oc2cc(OS(=O)(=O)O)ccc12 [4-methylumbelliferyl sulfate],Activity (%) as sulfate donor,[2],46%
O=C(O)CN(CCN(CC(=O)O)CC(=O)O)CC(=O)O [EDTA],Effectors: effect on enzyme activity,Clostridium innocuum AST,no effect
CC[C@H](C)[C@H](NC(=O)[C@H](Cc1ccc(O)cc1)NC(=O)[C@@H](NC(=O)[C@H](CCCNC(=N)N)NC(=O)[C@@H](N)CC(=O)O)C(C)C)C(=O)N[C@@H](Cc1cnc[nH]1)C(=O)N1CCC[C@H]1C(=O)N[C@@H](Cc1ccccc1)C(=O)N[C@@H](Cc1cnc[nH]1)C(=O)N[C@@H](CC(C)C)C(=O)O [angiotensin I] (H-DRVYIHPFHL-OH),Yield (%) of sulfated tyrosylpeptide,[1]; [7],8.8%
NC(=O)CC[C@@H]1NC(=O)[C@H](Cc2ccccc2)NC(=O)[C@H](Cc2ccc(O)cc2)NC(=O)[C@@H](N)CSSC[C@@H](C(=O)N2CCC[C@H]2C(=O)N[C@@H](CCCN=C(N)N)C(=O)NCC(N)=O)NC(=O)[C@H](CC(N)=O)NC1=O [arg8 vasopressin],Yield (%) of sulfated tyrosylpeptide,[1]; [7],35.8%
Oc1cc(O)c2c(c1)OC(c1ccc(O)c(O)c1)C(O)C2 (stereo not shown) [catechin],Activity (%) as sulfate acceptor,[1],150
Oc1ccccc1O [catechol],Activity (%) as sulfate acceptor,[1],208
"CSCC[C@H](NC(=O)[C@H](Cc1ccc(O)cc1)NC(=O)[C@@H](N)CC(=O)O)C(=O)NCC(=O)N[C@@H](Cc1c[nH]c2ccccc12)C(=O)N[C@@H](CCSC)C(=O)N[C@@H](CC(=O)O)C(=O)N[C@@H](Cc1ccccc1)C(N)=O [cholecystokinin8, cholecystokinin-8]",highest reported yield of sulfated CCK-8,[3],~31.3%
same,yield of sulfation of CCK-8,[4],≥ 45%
same,yield of sulfation of CCK-8,"[1]; Clostridium arylsulfotransferase, under conditions similar to the prior art",≥ 60%
same,Yield (%) of sulfated tyrosylpeptide,[1]; [7],35.4%
C[C@@H](NC(=O)[C@@H](N)Cc1ccc(O)cc1)C(=O)N[C@@H](Cc1ccccc1)C(=O)NCC(=O)N[C@@H](Cc1ccc(O)cc1)C(=O)N1CCC[C@H]1C(=O)N[C@@H](CO)C(N)=O [dermorphin],Yield (%) of sulfated tyrosylpeptide,[1]; [7],67.0%
C[C@]12CC[C@@H]3c4ccc(OS(=O)(=O)O)cc4CC[C@H]3[C@@H]1CCC2=O [estrone sulfate],specific activity as donor substrate,[5],about 3.4%
same,specific activity as donor substrate,[2],about 17%
same,Activity (%) as sulfate donor,[2],22%
O=S(=O)(O)Oc1c[nH]c2ccccc12 [indoxyl sulfate],specific activity as donor substrate,[5],about 2.2%
same,specific activity as donor substrate,[2],about 27%
same,Activity (%) as sulfate donor,[2],35%
N=C(N)NCCC[C@H](NC(=O)[C@@H](N)Cc1ccc(O)cc1)C(=O)O [kyotorphin],Yield (%) of sulfated tyrosylpeptide,[1]; [7],16.8%
CC(C)C[C@H](NC(=O)[C@H](Cc1ccccc1)NC(=O)CNC(=O)CNC(=O)[C@@H](N)Cc1ccc(O)cc1)C(=O)O [leu enkephalin],Yield (%) of sulfated tyrosylpeptide,[1]; [7],92.5%
COC(=O)c1ccc(O)cc1 [methyl p-hydroxybenzoate],Activity (%) as sulfate acceptor,[1],65
O=[N+]([O-])c1ccc(O)c(OS(=O)(=O)O)c1 [p-nitrocatechol sulfate],Activity (%) as sulfate donor,[2],196%
Oc1ccccc1 [phenol],Activity (%) as sulfate acceptor,[1],194
CSCC[C@H](NC(=O)[C@H](CC(C)C)NC(=O)CNC(=O)[C@H](Cc1ccc(O)cc1)NC(=O)[C@H](Cc1ccccc1)NC(=O)[C@H](CCCCN)NC(=O)[C@H](CC(N)=O)NC(=O)[C@@H]1CCCN1C(=O)[C@H](CC(=O)O)NC(=O)[C@H](C)NC(=O)[C@@H]1CCC(=O)N1)C(N)=O [physalaemin] (HELM PEPTIDE1{[Glp].A.D.P.N.K.F.Y.G.L.M.[am]}$$$$V2.0),Yield (%) of sulfated tyrosylpeptide,[1]; [7],10.5%
CC(C)C[C@H](NC(=O)[C@H](Cc1ccc(O)cc1)NC(=O)[C@@H](N)CCCNC(=N)N)C(=O)N1CCC[C@H]1C(=O)N[C@H](C(=O)O)[C@@H](C)O [proctolin] (H-RYLPT-OH),Yield (%) of sulfated tyrosylpeptide,[1]; [7],19.8%
"NCCc1ccc(O)cc1 [tyramine, 4-hydroxyphenethylamine]",Km,[6],1630 µM
same,Activity (%) as sulfate acceptor,[1]; [8],100%
COC(=O)[C@@H](N)Cc1ccc(O)cc1 [tyrosine methyl ester],Activity (%) as sulfate acceptor,[1]; [8],59%
N[C@@H](Cc1ccc(O)cc1)C(=O)O [tyrosine],Activity (%) as sulfate acceptor,[1],13
hirudin (54-65) (GDFEEIPEEYLQ) [Gly-Asp-Phe-Glu-Glu-lle-Pro-Glu-Glu-Tyr-Leu-Gin],Yield (%) of sulfated tyrosylpeptide,[1]; [7],7.7%
phenolphthalein sulfate,Activity (%) as sulfate donor,[2],12%

# From US6225100A, “Arylsulfotransferase” (DCV, Inc., priority 1999, dated 2001)
